Assay results reported in publication PMC2376196, “Novel thalidomide analogues display anti-angiogenic activity independently of immunomodulatory effects” (British Journal of Cancer, 2002).
Values after ≈ are worked out from the molar mass of the structure shown. “Also recorded” adds a separate entry of the source. Read-outs that look alike come from different tables or passages of the source.

Experiments:
[1] = test system: PDE type 4 purified from U937 cells; experiment: Phosphodiesterase (PDE) type 4 assay; format: biochemical; conditions: PDE type 4 from U937 cells; three independent experiments; read-out: PDE4 activity IC50
Experimental: PDE type 4 purification from U937 cells was carried out using the method of [Hill and Mitchell (1994)]. PDE activity was assayed, using a method described by [di Santo and Heaslip (1993)], in the presence of varying concentrations of thalidomide analogues. Each data point was carried out in duplicate with activity expressed as percentage of control. IC50 was determined from dose response curves derived from three independent experiments.

TNF-α = TNF-α inhibitory activity; format: cell-based
HUVEC = HUVEC proliferation (bFGF- and VEGF-induced, 3H-thymidine); format: cell-based, human; conditions: for bFGF and VEGF-induced proliferation of HUVECs: 5-50 μg ml^-1, 96 h; for IC50: Homo sapiens, HUVEC; for IC50 / HUVEC inhibition ~IC50 VEGF / HUVEC inhibition ~IC50 bFGF: 96 h, approximate figures
Experimental: (§1) Human umbilical vein endothelial cells (HUVEC) were purchased from TCS Cellworks Ltd. (Park Leys, Botolph Claydon, Bucks, UK) and cultured in large vessel EC basal medium and cell growth supplement (TCS Cellworks Ltd.). The cells were passaged between 3–5 times prior to use. The human endothelial-like EA.hy926 cell line, derived from the fusion of HUVEC with the A549 carcinoma cell line ([Edgell et al, 1983]), was kindly provided by Cora-Jean Edgell (NC, USA). The cells were cultured in DMEM with high glucose, 10% FCS and HAT. Both cell lines were harvested from subconfluent cultures and diluted to 4×10^4 cells ml^−1. Cells were seeded in 60 wells of a 96-well plate in a volume of 100 μl^−1. One plate was used per test article. Plates were incubated for 1 h at 37°C and 5% CO2. Growth factors were added at a volume of 50 μl^−1 with final concentrations of 10 ng ml^−1. Thalidomide and its analogues were added at a volume of 50 μl^−1 in final concentrations of 5, 10, 25, 50 μg ml^−1. DMSO as used as a vehicle at a final concentration of 0.05%. Plates were incubated at 37°C with 5% CO2 for 96 h. During the last 18 h of culture 1 μCi^−1 of ^3H-thymidine was added per well. Plates were then stored at −20°C until analysis using a Microbeta counter (Wallac, UK).

rat aortic explants = experiment: Rat aorta assay (microvessel outgrowths); format: cell-based; parameters: key to Anti-angiogenesis Rat aorta: 0=no effect; 1=non significant inhibition; 2=significant inhibition at 10 μg ml^-1; 3=significant inhibition at 1 μg ml^-1; conditions: for Anti-angiogenesis Rat aorta: ranked 0-3
Experimental: For the human angiogenesis assay thalidomide and various analogues were dissolved in DMSO (Sigma, Kent, UK) to obtain a stock solution of 1 mg ml^−1. Further dilutions were made in warm culture medium immediately before use and 1 and 10 μg ml^−1 of thalidomide or analogues were administered every 48 h. Final DMSO concentration was 0.05%. For the rat aorta assay, thalidomide analogues (Celgene, Warren, NJ, USA) were prepared in Tween 80 (Sigma, Kent, UK). […] The final Tween 80 concentration was 0.025%. For in vivo treatment experiments, mice were treated daily with 10 or 50 mg kg^−1 IMiD-1 with 0.5% DMSO as vehicle (see Tumour challenge model).
Preparation of agarose culture wells and aortic explants were prepared as described originally [Nicosia and Ottinetti, 1990], and subsequently modified by [Stevenson et al, 1998]. In brief, aortic explants were stored in DMEM/HAM F12. Agarose rings were obtained by punching two concentric circles in the sterile agarose gel (1.5%, w v^−1) with specifically designed aluminium punches. Collagen type I from rat tail (Sigma) was dissolved overnight in glacial acetic acid and diluted to 4.3 mg ml^−1 with 10% (v v^−1) DMEM/HAM F12. The final collagen solution was obtained by mixing seven volumes of 4.3 mg ml^−1 collagen with two volumes NaHCO3 (11.7 mg ml^−1 in DMEM/HAM F12) and one volume of 10×MEM. Finally, the pH was adjusted to 7.4 with 0.1 M NaOH using phenol red as a visual indicator. Prior to embedding of explants in collagen gel, the bottom of each agarose well was coated with 200 μl collagen solution and allowed to set at 37°C. The wells were then filled (further addition of 400 μl) and explants were promptly orientated into the centre of the collagen gel. The plates were incubated overnight with serum-free medium before group allocation and drug treatment commenced. Drugs were prepared as described and diluted in DMEM/HAM F12 medium to be administered at each media change (48 h). Microvessel outgrowths in all cultures were quantified at each media change.

[2] = test system: HUVECs (tubule formation); experiment: Human angiogenesis kit (tubule development); format: cell-based; parameters: key to Anti-angiogenesis Human model: 0=no effect; 1=non significant inhibition; 2=significant inhibition at 10 μg ml^-1; 3=significant inhibition at 1 μg ml^-1; conditions: for inhibition of tubule development: 11 days; for Anti-angiogenesis Human model: ranked 0-3
Experimental: (§2) For the human angiogenesis assay thalidomide and various analogues were dissolved in DMSO (Sigma, Kent, UK) to obtain a stock solution of 1 mg ml^−1. Further dilutions were made in warm culture medium immediately before use and 1 and 10 μg ml^−1 of thalidomide or analogues were administered every 48 h. Final DMSO concentration was 0.05%. For the rat aorta assay, thalidomide analogues (Celgene, Warren, NJ, USA) were prepared in Tween 80 (Sigma, Kent, UK). Dilutions were made in culture medium immediately before use and 1 or 10 μg ml^−1 of the analogues were administered every 48 h. The final Tween 80 concentration was 0.025%. For in vivo treatment experiments, mice were treated daily with 10 or 50 mg kg^−1 IMiD-1 with 0.5% DMSO as vehicle (see Tumour challenge model).
A commercially available human angiogenesis kit, used for the assessment of angiogenesis in vitro ([Bishop et al, 2000]; [Donovan et al, 2001]; [Terai et al, 2001]; [Drinkwater et al, 2002]; [Osugi et al, 2002]) was provided by TCS Cellworks. The assay is supplied as growing cultures of HUVECs at the earliest stages of tubule formation in a 24 well plate format. The assay was carried out according to manufactures instructions with minor modifications. In brief, 0.5 ml^−1 of fresh medium or medium plus drug preparations were added to the appropriate wells. A known angiogenic stimulator (VEGF at 5 ng ml^−1) and inhibitor (suramin at 10 μg ml^−1) were included as positive and negative controls respectively in addition to medium and DMSO controls and plates were incubated at 37°C. Drug administration was carried out every 48 h. On day 11, wells were fixed using ice cold 70% EtOH prior to incubation (RT) for 30 min. Blocking buffer was then added for 10 min. Endothelial cells were visualised by first staining with a primary sheep anti-human for von Willebrand factor antibody followed by a secondary donkey anti-sheep IgG horseradish peroxidase conjugate prior to colour development using a DAB metal substrate. The plate was washed with ddH2O (×3) and allowed to air dry overnight. Cultures were scored manually using a 25-point Chalkley eyepiece graticule (Graticules Ltd., Tonbridge, Kent, UK), previously described as a satisfactory method of assessing tumour vascularity ([Fox et al, 1995]). The extent of angiogenesis was assessed by counting the number of points on the chalkley graticule that landed on a tubule. The count was repeated 12 times for each well. The term ‘graticule unit’ was assigned to this measurement of tubule density.

EA.hy926 cell line = experiment: EA.hy926 proliferation (bFGF- and VEGF-induced, 3H-thymidine); format: cell-based, human; conditions: 5-50 μg ml^-1, 96 h; data not shown
Experimental: as §1

EA.hy926 cells = experiment: Wound assay for EA.hy926 cell migration; format: cell-based, human; conditions: 16 h
Experimental: We tested IMiD-1 in the wound healing assay as described by [Igura et al, 2001]. Briefly, confluent monolayers of EA.hy.926 cells in 35-mm dishes were wounded with a rubber policeman and washed with PBS. Then the dishes were incubated in complete DMEM containing IMiD-1 or suramin for 16 h at 37°C in a 5% CO2 incubator. DMSO (0.05%) was used as control. The cell monolayers were fixed with absolute methanol and stained with Giemsa. The number of cells that had migrated from the edge of the wound in each 125×500 μm area of eight randomly chosen fields was counted. The results are presented as the average number of cells per field.

CMT93 colorectal tumour = format: in vivo, MF1 nude mice
Experimental: as §2
MF1 nude mice (nu nu^−1) were purchased from Harlan UK. Mice were age and sex-matched for individual experiments. All animal experiments have been carried out with ethical committee approval. The ethical guidelines that were followed meet the standards set by the UKCCCR guidelines ([Workman et al, 1998]). CMT93 is an epithelial-like murine rectum polypoid carcinoma cell line with sarcomatous features derived from a C57/BL mouse ([Franks and Hemmings, 1978]). Mice were challenged subcutaneously with 200 μl of the murine colorectal cell line CMT93 (2×10^6 per mouse). Once the tumours reached a size of 20 mm^3, the potent anti-angiogenic analogue IMiD-1 was administered intraperitoneally daily at a concentration of 10 or 50 mg kg^−1. Tumours were measured every 3–4 days, and volumes (in mm^3) were calculated by the use of the formula (width [mm^2]×length [mm]×0.52). The animals were observed daily, and those bearing large tumours were monitored carefully for any signs of discomfort. […] Histological samples were obtained using formalin-fixed, paraffin-embedded sections stained for haematoxylin and eosin and viewed under a microscope at a magnification of ×400.

CMT93 cells = CMT93 cells in vitro (direct effect, VEGF secretion); format: cell-based, murine; conditions: data not shown
EC = test system: EC; parameters: method as in Takano et al, 1994; conditions: ref Takano et al, 1994; cited from earlier work
human EC = test system: human EC; parameters: method as in Moreira et al, 1999; conditions: compared with thalidomide; ref Moreira et al, 1999; cited from earlier work

Compound: O=C1CCC(N2C(=O)c3ccccc3C2=O)C(=O)N1 (centres unmarked) [Thalidomide]
- IC50 [1]: > 100 µM
- IC50 (TNF-α): 190 µM
- bFGF and VEGF-induced proliferation of HUVECs (HUVEC): did not significantly inhibit
- IC50 (HUVEC; VEGF-induced proliferation, read-out: HUVEC inhibition ~IC50 VEGF): > 50 µg/mL
- IC50 (HUVEC; bFGF-induced proliferation, read-out: HUVEC inhibition ~IC50 bFGF): > 50 µg/mL
- inhibition of microvessel development (rat aortic explants; at up to 50 μg ml^-1, data not shown): did not significantly inhibit
- Anti-angiogenesis Rat aorta (rat aortic explants): 0
- inhibition of tubule development ([2]; 10 μg ml^-1 every 48 h): non-significant inhibition
- Anti-angiogenesis Human model [2]: 1

Compound: Nc1cccc2c1CN(C1CCC(=O)NC1=O)C2=O (centres unmarked) [IMiD-1]
- IC50 [1]: > 100 µM
- IC50 (TNF-α): 0.1 µM
- bFGF and VEGF-induced proliferation of HUVECs (HUVEC): did not significantly inhibit; also recorded: did not affect
- HUVEC inhibition ~IC50 VEGF (HUVEC; VEGF-induced proliferation): >50 µg/mL
- HUVEC inhibition ~IC50 bFGF (HUVEC; bFGF-induced proliferation): >50 µg/mL
- bFGF and VEGF-induced proliferation of EA.hy926 (EA.hy926 cell line): did not affect
- inhibition of microvessel outgrowths (rat aortic explants; 1 μg ml^-1 every 48 h): significantly inhibited
- inhibition of microvessel outgrowths (rat aortic explants; 10 μg ml^-1 every 48 h, up to day 10): 100%
- Anti-angiogenesis Rat aorta (rat aortic explants): 3
- inhibition of tubule development ([2]; 1 μg ml^-1 every 48 h): significant reduction; also recorded: significantly inhibit
- inhibition of tubule development ([2]; 10 μg ml^-1 every 48 h): more potent than suramin
- Anti-angiogenesis Human model [2]: 3
- migration of EC in the wound healing assay (EA.hy926 cells): significantly inhibit
- histological examination of tumours (CMT93 colorectal tumour; 10 or 50 mg kg^-1 i.p. daily): vast regions of necrotic tissue
- tumour growth rates (CMT93 colorectal tumour; 10 or 50 mg kg^-1 i.p. daily, nude mice, CMT93): significantly reduce
- health and weight of mice (CMT93 colorectal tumour; mouse, in vivo, ip): healthy and maintained weight as normal
- direct drug effect on CMT93 cells in vitro (CMT93 cells): no direct drug effect
- secretion of VEGF by CMT93 cells in vitro (CMT93 cells): inhibit

Compound: Cc1ccc(C(=O)Nc2ccc(S(=O)(=O)O)c3cc(S(=O)(=O)O)cc(S(=O)(=O)O)c23)cc1NC(=O)c1cccc(NC(=O)Nc2cccc(C(=O)Nc3cc(C(=O)Nc4ccc(S(=O)(=O)O)c5cc(S(=O)(=O)O)cc(S(=O)(=O)O)c45)ccc3C)c2)c1 [suramin, reference compound]
- bFGF and VEGF-induced proliferation of HUVECs (HUVEC): did not inhibit
- inhibition of microvessel outgrowths (rat aortic explants; 10 μg ml^-1 every 48 h): significantly inhibit
- IC50 (rat aortic explants; Rattus norvegicus, previously determined, data not shown): 10 µg/mL (≈ 7.71 µM)
- inhibition at 10 µg/mL ([2]; Homo sapiens, HUVEC, suramin at 10 μg ml^-1): ~50%
- migration of EC in the wound healing assay (EA.hy926 cells): significantly inhibit
- concentration required to inhibit EC proliferation (EC): 250 µg/mL

Compound: COc1ccc(C(CC(N)=O)N2C(=O)c3ccccc3C2=O)cc1OC (centres unmarked) [SelCID-3]
- IC50 [1]: 9.42 µM
- IC50 (TNF-α): 12.6 µM
- bFGF and VEGF-induced proliferation of HUVECs (HUVEC): inhibited
- HUVEC inhibition ~IC50 VEGF (HUVEC; VEGF-induced proliferation): ~45 µg/mL
- HUVEC inhibition ~IC50 bFGF (HUVEC; bFGF-induced proliferation): ~25 µg/mL
- bFGF and VEGF-induced proliferation of EA.hy926 (EA.hy926 cell line): inhibited
- inhibition of microvessel outgrowths (rat aortic explants; 1 μg ml^-1 every 48 h): potent inhibition
- inhibition of microvessel outgrowths (rat aortic explants; 10 μg ml^-1 every 48 h): potent inhibition
- Anti-angiogenesis Rat aorta (rat aortic explants): 3
- inhibition of human EC proliferation in vitro (human EC): greater extent than thalidomide

Compound: VEGF
- effect on angiogenesis (tubule development) ([2]; VEGF at 5 ng ml^-1, positive control): significantly increased
